# pEC50, pIC50: −log10 of the molar value.
# Legend:
# [1] = Therapeutic index, ratio of IC50 for human H9 cells to EC50 for HIV 3B; assay type: cell-based; conditions: read-out: TI
# [2] = system: Human immunodeficiency virus 1; assay: Antiviral activity against HIV1 3B infected in H9 cells assessed as inhibition of viral replication by p24 antigen ELISA; assay type: functional, organism-based; conditions: for pEC50: Human immunodeficiency virus 1, 3B, H9, read-out: EC50; for EC50: h9
# [3] = Inhibition of tubulin polymerization
# [4] = Cytotoxicity against human KBVIN cells after 3 days by sulforhodamine B assay; assay type: functional, cell-based; conditions: 72 h
# [5] = system: 1A9; assay: Cytotoxicity against human 1A9 cells after 3 days by sulforhodamine B assay; assay type: functional, cell-based; conditions: 1A9, 72 h
# [6] = system: KB; assay: Cytotoxicity against human KB cells after 3 days by sulforhodamine B assay; assay type: functional, cell-based; conditions: 72 h
# [7] = system: HCT-8; assay: Cytotoxicity against human HCT8 cells after 3 days by sulforhodamine B assay; assay type: functional, cell-based; conditions: HCT-8, 72 h
# [8] = system: A549; assay: Cytotoxicity against human A549 cells after 3 days by sulforhodamine B assay; assay type: functional, cell-based; conditions: A549, 72 h
# [9] = system: PC-3; assay: Cytotoxicity against human PC3 cells after 3 days by sulforhodamine B assay; assay type: functional, cell-based; conditions: PC-3, 72 h
# [10] = system: A-431; assay: Cytotoxicity against human A431 cells after 3 days by sulforhodamine B assay; assay type: functional, cell-based; conditions: A-431, 72 h
# [11] = Cytotoxicity against human H9 cells after 4 days by coulter counter; assay type: cell-based; conditions: human, H9 cells; read-out: TI
# [12] = Cytotoxicity against human KB-7d cells after 72 hrs by MTT assay; assay type: functional, cell-based; conditions: KB7D; for EC50 / pEC50: read-out: ED50 (the source's name)
# [13] = system: KB; assay: Cytotoxicity against human etoposide-resistant KB cells after 72 hrs by MTT assay
# [14] = system: KB; assay: Cytotoxicity against human KB cells after 72 hrs by MTT assay; assay type: functional, cell-based; conditions: for EC50 / pEC50: read-out: ED50 (the source's name)
# [15] = Cytotoxicity against human KB1 cells after 72 hrs by MTT assay; assay type: functional, cell-based; conditions: KB1, 72 h
smiles,measurement,setting,value
COc1cc2c(cc1O)[C@@H](Cc1ccc(O)cc1)NCC2,selectivity ratio,[1],125
same,pEC50,[2],5.55
COc1cc2c(c(OC)c1OC)-c1ccc(SC)c(=O)cc1[C@@H](OC(=O)Oc1ccncc1)CC2,pIC50,[3],6.25
C[C@@H]1O[C@@H](O[C@H]2CC[C@]3(C=O)[C@H]4CC[C@]5(C)[C@@H](c6ccc(=O)oc6)CC[C@]5(O)[C@@H]4CC[C@]3(O)C2)[C@@H](O)[C@H](O)[C@@H]1O [KALANCHOSIDE B],IC50,[4],13 ng/mL
same,IC50,[5],7 ng/mL
same,IC50,[6],5 ng/mL
same,IC50,[7],15 ng/mL
same,IC50,[8],1 ng/mL
same,IC50,[9],10 ng/mL
same,IC50,[10],22 ng/mL
COc1cc2c(c(OC)c1OC)-c1ccc(SC)c(=O)cc1C(=O)CC2 [THIOCOLCHICONE],pIC50,[3],6.12
O=c1cc(-c2ccccc2F)[nH]c2ccc(N3CCCC3)cc12,pIC50,[3],6.34
COc1cc2c(c(OC)c1OC)-c1ccc(SC)cc1C(=O)CC2,pIC50,[3],6.30
CC1(C)Oc2ccc3ccc(=O)oc3c2[C@@H](OC(=O)C23CCC(C)(C(=O)O2)C3(C)C)[C@H]1OC(=O)C12CCC(C)(C(=O)O1)C2(C)C (some centres undefined),selectivity ratio at 96 h,[11],> 16.1
same,pEC50,[2],7.30
COC(=O)C[C@@H]1C(=O)CC[C@H](C)C(=O)O[C@@H]2[C@@H]3[C@@H](OC(C)=O)[C@@]45O[C@@]3(C)COC(=O)c3cnccc3[C@@H](C)[C@@H](O)C(=O)O[C@@H]([C@H](OC(C)=O)[C@H](OC(C)=O)[C@@]4(COC1=O)[C@@H]2OC(C)=O)[C@]5(C)O [TRIPTONINE B],selectivity ratio,[1],> 1000
Cc1cc2ccc3c(c2oc1=O)[C@@H](OC(=O)C12CCC(C)(C(=O)O1)C2(C)C)[C@@H](OC(=O)C12CCC(C)(C(=O)O1)C2(C)C)C(C)(C)O3 (some centres undefined),EC50,[2],Not Active
CC(C)=CCC/C(C)=C/CC[C@@]1(C)C=Cc2c(cc(C)c(C(=O)O)c2O)O1 [DAURICHROMENIC ACID],selectivity ratio,[1],3710
same,pEC50,[2],7.82
Cc1cc2ccc(=O)oc2c2c1OC(C)(C)[C@H](OC(=O)C13CCC(C)(C(=O)O1)C3(C)C)[C@@H]2OC(=O)C12CCC(C)(C(=O)O1)C2(C)C (some centres undefined),selectivity ratio at 96 h,[11],> 16
same,pEC50,[2],6.68
Cc1cn([C@H]2C[C@H](N=[N+]=[N-])[C@@H](CO)O2)c(=O)[nH]c1=O [ZIDOVUDINE],pEC50,[2],7.36
C[C@H]1O[C@H](O[C@H]2CC[C@]3(C=O)[C@H]4CC[C@]5(C)[C@@H](c6ccc(=O)oc6)CC[C@]5(O)[C@@H]4CC[C@]3(O)C2)[C@H](O)[C@@H](O)[C@@H]1O [KALANCHOSIDE A],IC50,[4],3 ng/mL
same,IC50,[5],0.8 ng/mL
same,IC50,[6],3 ng/mL
same,IC50,[7],6 ng/mL
same,IC50,[8],0.5 ng/mL
same,IC50,[9],2 ng/mL
same,IC50,[10],7 ng/mL
COc1cc(=O)oc2c3c(ccc12)OC(C)(C)[C@H](OC(=O)C12CCC(C)(C(=O)O1)C2(C)C)[C@@H]3OC(=O)C12CCC(C)(C(=O)O1)C2(C)C (some centres undefined),selectivity ratio at 96 h,[11],> 15
same,pEC50,[2],7.30
COC(=O)c1ccc(N[C@@H]2c3cc4c(cc3[C@@H](c3cc(OC)c(O)c(OC)c3)[C@H]3C(=O)OC[C@@H]32)OCO4)cc1,pIC50,[12],5.15
same,pIC50,[13],5.48
same,pIC50,[14],6.08
same,pIC50,[15],5.60
COc1cc2ccc(=O)oc2c2c1OC(C)(C)[C@H](OC(=O)C13CCC(C)(C(=O)O1)C3(C)C)[C@@H]2OC(=O)C12CCC(C)(C(=O)O1)C2(C)C (some centres undefined),EC50,[2],Not Active
COc1cc([C@@H]2c3cc4c(cc3[C@@H](NC3=CCC5(C=C3)OCCO5)[C@H]3COC(=O)[C@H]23)OCO4)cc(OC)c1O,pIC50,[12],6.00
same,pIC50,[13],5.80
same,pIC50,[14],6.17
same,pIC50,[15],6.30
Cc1c(CBr)c(=O)oc2c3c(ccc12)OC(C)(C)[C@H](OC(=O)C12CCC(C)(C(=O)O1)C2(C)C)[C@@H]3OC(=O)C12CCC(C)(C(=O)O1)C2(C)C (some centres undefined),selectivity ratio,[1],186000
same,pEC50,[2],9.96
Cc1cc2c(c3oc(=O)ccc13)[C@@H](OC(=O)C13CCC(C)(C(=O)O1)C3(C)C)[C@@H](OC(=O)C13CCC(C)(C(=O)O1)C3(C)C)C(C)(C)O2 (some centres undefined),selectivity ratio at 96 h,[11],> 16
same,pEC50,[2],8.10
CC(C)(O)[C@H](O)COc1c2occc2cc2ccc(=O)oc12 [HERACLENOL],selectivity ratio,[1],870
same,pEC50,[2],6.42
OC[C@@H](O)C[C@H]1OCC2(O)c3c(cc(O)c4c3O[C@@H](c3cc(O)c(O)c(O)c3)[C@@H](O)C4)OC12O (some centres undefined),selectivity ratio,[1],9.5
same,pEC50,[2],5.40
COc1cc2c(c3oc(=O)ccc13)[C@@H](OC(=O)C13CCC(C)(C(=O)O1)C3(C)C)[C@@H](OC(=O)C13CCC(C)(C(=O)O1)C3(C)C)C(C)(C)O2 (some centres undefined),selectivity ratio at 96 h,[11],> 15
same,pEC50,[2],7.36
COc1cc([C@@H]2c3cc4c(cc3[C@@H](Nc3ccc(N)cc3)[C@H]3COC(=O)[C@H]23)OCO4)cc(OC)c1O,pIC50,[12],5.12
same,pIC50,[13],5.70
same,pIC50,[14],6.23
same,pIC50,[15],5.46
O=C(C[C@H](Cc1ccc(O)c(O)c1)C(=O)O)C1=Cc2cc(O)c(O)cc2[C@H](c2ccc(O)c(O)c2)[C@H]1CC[C@H](Cc1ccc(O)c(O)c1)C(=O)O,selectivity ratio,[1],33.3
same,pEC50,[2],5.72
COc1cc2c(c(OC)c1OC)-c1c(cc3c(c1OC)OCO3)[C@H](OC(=O)c1ccccc1)[C@@](C)(O)[C@@H](C)C2 [GOMISIN G],selectivity ratio,[1],600
same,pEC50,[2],7.96
COc1cc2ccc3c(c2oc1=O)[C@@H](OC(=O)C12CCC(C)(C(=O)O1)C2(C)C)[C@@H](OC(=O)C12CCC(C)(C(=O)O1)C2(C)C)C(C)(C)O3 (some centres undefined),selectivity ratio at 96 h,[11],> 15
same,pEC50,[2],7.52
COc1cc([C@@H]2c3cc4c(cc3[C@@H](Nc3ccc([N+](=O)[O-])cc3)[C@H]3COC(=O)[C@H]23)OCO4)cc(OC)c1O,pIC50,[12],5.11
same,EC50,[12],2000 ng/mL
same,pIC50,[13],5.52
same,pIC50,[14],6.31
same,EC50,[14],200 ng/mL
same,pIC50,[15],5.21
COc1cc([C@@H]2c3cc4c(cc3[C@@H](Nc3ccc(C(=O)N[C@@H](C)C(=O)OCc5ccccc5)cc3)[C@H]3COC(=O)[C@H]23)OCO4)cc(OC)c1O,EC50,[12],250 ng/mL
same,EC50,[14],500 ng/mL
CC(=O)O[C@@H]1[C@H](OC(=O)CC(C)C)c2c(ccc3ccc(=O)oc23)OC1(C)C [SUKSDORFIN],selectivity ratio,[1],40
same,pEC50,[2],5.89
COc1cc([C@@H]2c3cc4c(cc3[C@@H](Nc3ccc(C#N)cc3)[C@H]3COC(=O)[C@H]23)OCO4)cc(OC)c1O,pIC50,[12],5.30
same,pIC50,[13],5.40
same,pIC50,[14],6.21
same,pIC50,[15],5.57
C[C@]12CCC[C@]3(C(=O)OC1)[C@@H]2CC[C@@]12C[C@@H](CC[C@H]13)[C@](C)(O)C2 [NEOTRIPTERIFORDIN],selectivity ratio,[1],125
same,pEC50,[2],7.60
COc1c(C)c(O)c(C(=O)/C=C(\O)c2ccccc2)c(O)c1C=O,selectivity ratio,[1],489
same,pEC50,[2],7.17
COc1cc([C@@H]2c3cc4c(cc3[C@@H](O[C@@H]3O[C@@H]5CO[C@@H](C)O[C@H]5[C@H](O)[C@H]3O)[C@H]3COC(=O)[C@H]23)OCO4)cc(OC)c1O [ETOPOSIDE],pIC50,[12],4.11
same,pEC50,[12],4.60
same,pIC50,[13],4.54
same,pIC50,[14],6.22
same,pEC50,[14],6.70
same,pIC50,[15],4.46
COc1cc([C@@H]2c3cc4c(cc3[C@@H](Nc3ccc(F)cc3)[C@H]3COC(=O)[C@H]23)OCO4)cc(OC)c1O,pIC50,[12],5.08
same,pIC50,[13],5.14
same,pIC50,[14],6.17
same,pIC50,[15],5.40
Cc1cc(=O)oc2c3c(ccc12)OC(C)(C)[C@H](OC(=O)C12CCC(C)(C(=O)O1)C2(C)C)[C@@H]3OC(=O)C12CCC(C)(C(=O)O1)C2(C)C (some centres undefined),selectivity ratio at 96 h,[11],> 39
same,pEC50,[2],8.22
COc1cc([C@@H]2c3cc4c(cc3[C@@H](Nc3ccc(NC(=O)c5cc([N+](=O)[O-])cn5C)cc3)[C@H]3COC(=O)[C@H]23)OCO4)cc(OC)c1O,pEC50,[12],6.70
same,pEC50,[14],7.40
CC1(C)C=C2[C@H]3CC[C@@H]4[C@@]5(C)CCC(=O)C(C)(C)[C@@H]5CC[C@@]4(C)[C@]3(C)CC[C@@]2(C(=O)O)CC1 [MORONIC ACID],selectivity ratio,[1],> 186
same,pEC50,[2],> 6.66
